Measurements as given in the supplement of paper PMC10307832.

What was measured:
Assay in all cases: relative viability (nuclei count vs DMSO), 5 days (fraction); higher = more cells survive
NCI-H1915 = test system: NCI-H1915
Method in brief: (§1)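 Cells from lung cancer lines were seeded into 1536-well plates and, one day later, dosed by pin tool. Treatments were either a single drug or a fixed dose of an anchor drug with five library-drug doses (not always all listed) in √10 steps. After 5 days, nuclei were stained in a one-step fixation (final 0.05% Triton X-100, 1% formaldehyde, 1 ug/ml Hoechst) and counted on 4× images, and relative viability is the treated-to-vehicle nuclei ratio, as the median of duplicate plates.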

SW 1573 = test system: SW 1573
Method in brief: as §1

HOP-62 = test system: HOP-62
Method in brief: as §1

NCI-H1651 = test system: NCI-H1651
Method in brief: as §1

NCI-H358 = test system: NCI-H358
Method in brief: as §1

NCI-H1993 = test system: NCI-H1993
Method in brief: as §1

NCI-H2347 = test system: NCI-H2347
Method in brief: as §1

NCI-H650 = test system: NCI-H650
Method in brief: as §1

COR-L23 = test system: COR-L23
Method in brief: as §1

HCC-15 = test system: HCC-15
Method in brief: as §1

LC-2-ad = test system: LC-2-ad
Method in brief: as §1

**Q.** What does the source list for `CCN(CC)CCCCNc1ncc2cc(-c3cc(OC)cc(OC)c3)c(NC(=O)NC(C)(C)C)nc2n1` + CC(=O)Nc1cccc(-n2c(=O)n(C3CC3)c(=O)c3c(Nc4ccc(I)cc4F)n(C)c(=O)c(C)c32)c1 [Trametinib] (partner 0.02 µM)?
**A.** relative viability (NCI-H1915; first compound 0.01 µM): 0.303; relative viability (NCI-H1915; first compound 0.03162 µM): 0.294; relative viability (NCI-H1915; first compound 0.1 µM): 0.33; relative viability (NCI-H1915; first compound 0.3162 µM): 0.249; relative viability (NCI-H1915; first compound 1 µM): 0.233; relative viability (SW 1573; first compound 0.01 µM): 0.455; relative viability (SW 1573; first compound 0.03162 µM): 0.539; relative viability (SW 1573; first compound 0.1 µM): 0.605; relative viability (SW 1573; first compound 0.3162 µM): 0.516; relative viability (SW 1573; first compound 1 µM): 0.433; relative viability (HOP-62; first compound 0.01 µM): 0.452; relative viability (HOP-62; first compound 0.03162 µM): 0.395; relative viability (HOP-62; first compound 0.1 µM): 0.398; relative viability (HOP-62; first compound 0.3162 µM): 0.37; relative viability (HOP-62; first compound 1 µM): 0.339; relative viability (NCI-H1651; first compound 0.01 µM): 0.863; relative viability (NCI-H1651; first compound 0.03162 µM): 0.802; relative viability (NCI-H1651; first compound 0.1 µM): 0.842; relative viability (NCI-H1651; first compound 0.3162 µM): 0.836; relative viability (NCI-H1651; first compound 1 µM): 0.806; relative viability (NCI-H358; first compound 0.01 µM): 0.127; relative viability (NCI-H358; first compound 0.03162 µM): 0.15; relative viability (NCI-H358; first compound 0.1 µM): 0.143; relative viability (NCI-H358; first compound 0.3162 µM): 0.139; relative viability (NCI-H358; first compound 1 µM): 0.125; relative viability (NCI-H1993; first compound 0.01 µM): 0.567; relative viability (NCI-H1993; first compound 0.03162 µM): 0.5; relative viability (NCI-H1993; first compound 0.1 µM): 0.53; relative viability (NCI-H1993; first compound 0.3162 µM): 0.557; relative viability (NCI-H1993; first compound 1 µM): 0.0258; relative viability (NCI-H2347; first compound 0.01 µM): 0.253; relative viability (NCI-H2347; first compound 0.03162 µM): 0.261; relative viability (NCI-H2347; first compound 0.1 µM): 0.293; relative viability (NCI-H2347; first compound 0.3162 µM): 0.367; relative viability (NCI-H2347; first compound 1 µM): 0.321; relative viability (NCI-H650; first compound 0.01 µM): 1.03; relative viability (NCI-H650; first compound 0.03162 µM): 1.01; relative viability (NCI-H650; first compound 0.1 µM): 0.962; relative viability (NCI-H650; first compound 0.3162 µM): 1.07; relative viability (NCI-H650; first compound 1 µM): 0.925; relative viability (COR-L23; first compound 0.01 µM): 0.579; relative viability (COR-L23; first compound 0.03162 µM): 0.593; relative viability (COR-L23; first compound 0.1 µM): 0.667; relative viability (COR-L23; first compound 0.3162 µM): 0.692; relative viability (COR-L23; first compound 1 µM): 0.61; relative viability (HCC-15; first compound 0.01 µM): 0.427; relative viability (HCC-15; first compound 0.03162 µM): 0.367; relative viability (HCC-15; first compound 0.1 µM): 0.414; relative viability (HCC-15; first compound 0.3162 µM): 0.42; relative viability (HCC-15; first compound 1 µM): 0.361; relative viability (LC-2-ad; first compound 0.01 µM): 0.874; relative viability (LC-2-ad; first compound 0.03162 µM): 1.02; relative viability (LC-2-ad; first compound 0.1 µM): 0.992; relative viability (LC-2-ad; first compound 0.3162 µM): 0.967; relative viability (LC-2-ad; first compound 1 µM): 0.841
